Experimental data as given in publication PMC9378504 (Journal of medicinal chemistry, 2022).

Tests used:
NSD2 [1] = target: T1, NSD2 (Homo sapiens, UniProt O96028); assay: Western blotting of NSD2 protein level in H929 cells; format: cell-based
T1 sequence (O96028 1-1365): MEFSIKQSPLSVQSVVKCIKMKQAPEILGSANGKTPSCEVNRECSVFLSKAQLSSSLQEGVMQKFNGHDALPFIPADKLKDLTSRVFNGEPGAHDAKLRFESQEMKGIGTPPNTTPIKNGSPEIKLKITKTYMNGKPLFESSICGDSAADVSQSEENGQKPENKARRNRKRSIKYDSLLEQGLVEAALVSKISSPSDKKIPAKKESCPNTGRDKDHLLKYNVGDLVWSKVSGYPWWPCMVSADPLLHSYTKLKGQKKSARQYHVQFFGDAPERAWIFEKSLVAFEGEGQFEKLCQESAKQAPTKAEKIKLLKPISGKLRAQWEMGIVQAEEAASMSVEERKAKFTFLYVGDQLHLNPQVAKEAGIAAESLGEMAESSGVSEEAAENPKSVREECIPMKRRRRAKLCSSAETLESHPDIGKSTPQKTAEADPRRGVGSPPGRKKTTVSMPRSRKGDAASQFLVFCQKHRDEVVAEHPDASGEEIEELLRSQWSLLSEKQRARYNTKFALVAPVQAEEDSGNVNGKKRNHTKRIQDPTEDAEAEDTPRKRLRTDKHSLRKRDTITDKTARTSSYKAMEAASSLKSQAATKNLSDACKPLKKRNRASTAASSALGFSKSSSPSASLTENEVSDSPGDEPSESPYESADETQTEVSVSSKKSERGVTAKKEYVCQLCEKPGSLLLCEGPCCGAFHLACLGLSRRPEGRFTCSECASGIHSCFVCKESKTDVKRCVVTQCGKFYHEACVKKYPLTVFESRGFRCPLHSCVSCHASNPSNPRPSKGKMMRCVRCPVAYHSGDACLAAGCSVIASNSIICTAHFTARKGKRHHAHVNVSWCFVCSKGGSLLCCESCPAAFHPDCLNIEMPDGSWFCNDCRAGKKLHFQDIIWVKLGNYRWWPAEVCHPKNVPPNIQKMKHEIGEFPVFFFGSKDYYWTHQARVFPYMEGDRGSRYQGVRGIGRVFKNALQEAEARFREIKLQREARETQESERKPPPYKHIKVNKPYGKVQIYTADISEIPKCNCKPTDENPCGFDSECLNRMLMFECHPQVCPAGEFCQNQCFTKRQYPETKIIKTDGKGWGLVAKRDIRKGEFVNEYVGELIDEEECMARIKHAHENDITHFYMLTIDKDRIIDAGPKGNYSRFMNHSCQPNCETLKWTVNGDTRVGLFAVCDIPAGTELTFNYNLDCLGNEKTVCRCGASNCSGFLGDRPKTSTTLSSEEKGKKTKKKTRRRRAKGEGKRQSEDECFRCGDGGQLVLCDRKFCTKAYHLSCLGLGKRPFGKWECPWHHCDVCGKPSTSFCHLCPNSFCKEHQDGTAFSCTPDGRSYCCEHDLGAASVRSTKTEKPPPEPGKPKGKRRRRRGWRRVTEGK

NSD2 [2] = target: T1, NSD2; assay: Western blotting of NSD2 protein level in KMS11 cells; format: cell-based
NSD2 [3] = target: T1, NSD2; assay: Western blotting of NSD2 protein level in 293FT cells; format: cell-based; settings: 293FT cells; for NSD2 degradation: SI Figure S1A
IKZF3 [4] = target: T2, IKZF3 (Homo sapiens, UniProt Q96SW2+Q9UKT9); assay: Western blotting of IKZF3 protein level in 293FT cells; format: cell-based; settings: 293FT cells, SI Figure S1A
T2 sequence (Q9UKT9 whole entry): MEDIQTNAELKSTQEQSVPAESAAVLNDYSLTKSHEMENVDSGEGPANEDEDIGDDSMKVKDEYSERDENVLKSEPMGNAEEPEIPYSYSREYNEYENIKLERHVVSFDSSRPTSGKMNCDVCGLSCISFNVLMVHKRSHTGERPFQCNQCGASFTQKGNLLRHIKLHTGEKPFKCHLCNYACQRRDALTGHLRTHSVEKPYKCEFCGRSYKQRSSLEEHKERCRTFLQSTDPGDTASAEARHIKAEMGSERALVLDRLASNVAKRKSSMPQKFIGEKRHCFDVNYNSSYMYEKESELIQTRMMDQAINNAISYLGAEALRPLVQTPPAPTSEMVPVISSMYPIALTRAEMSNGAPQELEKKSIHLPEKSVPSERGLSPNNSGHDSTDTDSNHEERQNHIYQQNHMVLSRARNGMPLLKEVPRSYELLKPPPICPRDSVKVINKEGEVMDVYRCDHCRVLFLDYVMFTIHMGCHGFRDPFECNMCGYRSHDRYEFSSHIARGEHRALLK
T2 sequence (Q96SW2 whole entry): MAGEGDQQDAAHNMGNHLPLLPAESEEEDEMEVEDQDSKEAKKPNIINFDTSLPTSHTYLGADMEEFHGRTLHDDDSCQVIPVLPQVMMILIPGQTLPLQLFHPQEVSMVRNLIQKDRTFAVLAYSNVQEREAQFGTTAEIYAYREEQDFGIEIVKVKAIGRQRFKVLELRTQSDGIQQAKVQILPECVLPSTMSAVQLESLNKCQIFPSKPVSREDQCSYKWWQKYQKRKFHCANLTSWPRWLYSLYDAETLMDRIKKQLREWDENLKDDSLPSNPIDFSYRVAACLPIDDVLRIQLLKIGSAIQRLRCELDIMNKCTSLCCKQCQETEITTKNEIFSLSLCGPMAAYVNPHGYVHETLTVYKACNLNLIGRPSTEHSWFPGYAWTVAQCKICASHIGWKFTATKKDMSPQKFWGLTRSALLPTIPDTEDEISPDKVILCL
T2 sequence (Q16531 whole entry partner): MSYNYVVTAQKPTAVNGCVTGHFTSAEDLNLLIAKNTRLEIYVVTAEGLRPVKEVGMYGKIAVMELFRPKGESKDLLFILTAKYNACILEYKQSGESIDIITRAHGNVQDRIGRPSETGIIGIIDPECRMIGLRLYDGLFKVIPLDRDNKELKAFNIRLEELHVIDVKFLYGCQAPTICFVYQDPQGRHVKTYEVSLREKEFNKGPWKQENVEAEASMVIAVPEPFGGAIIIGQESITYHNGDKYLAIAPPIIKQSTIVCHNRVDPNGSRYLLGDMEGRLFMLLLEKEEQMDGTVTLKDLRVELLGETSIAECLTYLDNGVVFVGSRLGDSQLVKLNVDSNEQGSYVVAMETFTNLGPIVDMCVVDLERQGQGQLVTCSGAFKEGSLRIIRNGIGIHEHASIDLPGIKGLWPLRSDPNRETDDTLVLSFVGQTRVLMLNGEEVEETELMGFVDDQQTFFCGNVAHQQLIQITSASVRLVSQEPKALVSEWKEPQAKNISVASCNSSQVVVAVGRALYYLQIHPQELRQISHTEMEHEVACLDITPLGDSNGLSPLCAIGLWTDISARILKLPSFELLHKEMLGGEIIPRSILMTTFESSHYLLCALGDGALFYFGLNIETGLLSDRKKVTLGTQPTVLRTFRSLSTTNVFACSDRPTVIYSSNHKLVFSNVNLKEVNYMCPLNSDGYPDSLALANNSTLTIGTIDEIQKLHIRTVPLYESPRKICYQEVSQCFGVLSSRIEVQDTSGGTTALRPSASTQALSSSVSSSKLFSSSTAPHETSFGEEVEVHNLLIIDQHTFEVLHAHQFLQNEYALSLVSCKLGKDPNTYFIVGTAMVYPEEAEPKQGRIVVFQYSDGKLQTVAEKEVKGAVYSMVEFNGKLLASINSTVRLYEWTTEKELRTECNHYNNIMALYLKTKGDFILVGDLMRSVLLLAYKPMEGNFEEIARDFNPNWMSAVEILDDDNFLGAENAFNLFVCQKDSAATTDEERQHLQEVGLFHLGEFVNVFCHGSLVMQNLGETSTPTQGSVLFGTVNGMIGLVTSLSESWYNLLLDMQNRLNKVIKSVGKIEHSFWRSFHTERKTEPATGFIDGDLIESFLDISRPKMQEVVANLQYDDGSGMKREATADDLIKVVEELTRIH

GSPT1 [5] = assay: Western blotting of GSPT1 protein level in 293FT cells; format: cell-based; settings: SI Figure S1A
GSPT1 [6] = assay: Western blotting of GSPT1 protein level in KMS11 cells; format: cell-based, Human; settings: 2.5 μM, 72 h
IKZF1 [7] = target: T3, IKZF1 (Homo sapiens, UniProt Q13422+Q96SW2); assay: Western blotting of IKZF1 protein level in H929 cells; format: cell-based; settings: 2.5 μM, 72 h
T3 sequence (Q13422 whole entry): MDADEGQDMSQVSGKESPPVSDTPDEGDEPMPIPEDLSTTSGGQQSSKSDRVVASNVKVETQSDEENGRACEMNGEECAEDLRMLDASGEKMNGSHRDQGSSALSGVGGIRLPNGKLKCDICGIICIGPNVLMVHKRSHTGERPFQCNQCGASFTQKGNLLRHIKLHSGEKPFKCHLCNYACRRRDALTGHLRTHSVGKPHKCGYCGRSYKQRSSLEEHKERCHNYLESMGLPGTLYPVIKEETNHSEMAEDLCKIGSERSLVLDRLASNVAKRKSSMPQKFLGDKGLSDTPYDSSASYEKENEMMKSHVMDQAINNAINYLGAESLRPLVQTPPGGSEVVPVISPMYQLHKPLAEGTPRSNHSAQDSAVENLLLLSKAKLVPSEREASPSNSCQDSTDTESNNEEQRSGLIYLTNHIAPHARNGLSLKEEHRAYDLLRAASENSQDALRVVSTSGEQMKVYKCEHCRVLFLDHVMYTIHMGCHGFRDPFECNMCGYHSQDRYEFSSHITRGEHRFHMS
T3 sequence (Q96SW2 whole entry): as the sequence (Q96SW2 whole entry) above
T3 sequence (Q16531 whole entry partner): as the sequence (Q16531 whole entry partner) above

IKZF3 [8] = target: T2, IKZF3; assay: Western blotting of IKZF3 protein level in H929 cells; format: cell-based; settings: 2.5 μM, 72 h
IKZF1 [9] = target: T3, IKZF1; assay: Western blotting of IKZF1 protein level in KMS11 cells; format: cell-based; settings: 2.5 μM, 72 h
IKZF3 [10] = target: T2, IKZF3; assay: Western blotting of IKZF3 protein level in KMS11 cells; format: cell-based; settings: 2.5 μM, 72 h
KMS11 cells = assay: Cell growth inhibition assay in KMS11 cells; format: cell-based, Human; settings: 2.5 μM, 8 days
GSPT1 [11] = assay: Western blotting of GSPT1 protein level in H929 cells; format: cell-based, Human; settings: 2.5 μM, 72 h
H929 cells = assay: Cell growth inhibition assay in H929 cells; format: cell-based, Human; settings: 2.5 μM, 8 days
NSD2-PWWP1 domain = target: T4, NSD2-PWWP1 domain (Homo sapiens, UniProt O96028); assay: Isothermal titration calorimetry; settings: ITC, inverse titration, 50 mM Tris-HCl pH 6.8, 25 °C; mean ± SD from two independent experiments
T4 sequence (O96028 208-369): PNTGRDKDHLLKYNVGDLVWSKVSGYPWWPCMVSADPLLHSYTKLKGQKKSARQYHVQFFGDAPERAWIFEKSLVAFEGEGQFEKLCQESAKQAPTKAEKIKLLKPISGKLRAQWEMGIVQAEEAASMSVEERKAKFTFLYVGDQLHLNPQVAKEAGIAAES

In the case of `Cc1ncsc1-c1ccc(CNC(=O)[C@@H]2C[C@@H](O)CN2C(=O)[C@@H](NC(=O)CCOCCOCCNC(=O)c2ccc(NC(=O)c3ccc(CN(C(=O)c4ccc5c(c4)OCC(=O)N5)C4CC4)cc3)cc2)C(C)(C)C)cc1` [Compound 1, N-Cyclopropyl-N-(4-((4-((2-(2-(3-(((S)-1-((2S,4R)-4-hydroxy-2-((4-(4-methylthiazol-5-yl)benzyl)carbamoyl)pyrrolidin-1-yl)-3,3-dimethyl-1-oxobutan-2-yl)amino)-3-oxopropoxy)ethoxy)ethyl)-carbamoyl)phenyl)carbamoyl)benzyl)-3-oxo-3,4-dihydro-2H-benzo[b][1,4]oxazine-7-carboxamide], the NSD2 degradation (NSD2 [1]; SI Figure S1B) is reported as “ineffective in degrading NSD2”, the NSD2 degradation (NSD2 [2]; SI Figure S1B) is reported as “ineffective in degrading NSD2” and the NSD2 degradation (NSD2 [3]; 2.5 μM) is reported as “confirmed the NSD2 degradation effect”. For the same compound, the NSD2 degradation (NSD2 [3]; 10 μM) was “hook affect”, the NSD2 degradation (NSD2 [3]; 0.1 and 0.5 μM) was “did not induce NSD2 degradation” and the NSD2 protein level (NSD2 [3]; 2.5 and 10 μM, 48 h, Figure 2) was “clearly reduced the NSD2 protein level with a slight hook effect at 10μM”. The IKZF3 degradation (IKZF3 [4]) was “did not degrade GSPT1 or IKZF3” and the GSPT1 degradation (GSPT1 [5]) was “did not degrade GSPT1 or IKZF3”.
For `CN1C(=O)CCC(N2C(=O)c3cccc(NCC(=O)NCCCOc4ccc(NC(=O)c5ccc(CN(C(=O)c6ccc7c(c6)OCC(=O)N7)C6CC6)cc5)nc4)c3C2=O)C1=O` (stereo not shown) [Compound 17, N-Cydopropyl-N-(4-((5-(3-(2-((2-(1-methyl-2,6-dioxopiperidin-3-yl)-1,3-dioxoisoindolin-4-yl)amino)acetamido)propoxy)pyridin-2-yl)carbamoyl)benzyl)-3-oxo-3,4-dihydro-2H-benzo[b][1,4]oxazine-7-carboxamide], the GSPT1 degradation (GSPT1 [6]) was “did not degrade GSPT1”, the IKZF1 protein level (IKZF1 [7]) was “did not display any degradation effect” and the IKZF3 protein level (IKZF3 [8]) was “did not display any degradation effect”. The NSD2 degradation (NSD2 [1]; 2.5 μM, 72 h) was “did not induce obvious NSD2 degradation”, the IKZF1 protein level (IKZF1 [9]) was “did not display any degradation effect” and the NSD2 degradation (NSD2 [2]; 2.5 μM, 72 h) was “did not induce obvious NSD2 degradation”. For the same compound, the IKZF3 protein level (IKZF3 [10]) was “did not display any degradation effect”, the Cell growth inhibition (KMS11 cells) was “showed little effect on cell growth inhibition” and the GSPT1 degradation (GSPT1 [11]) was “did not degrade GSPT1”. For the same compound, the Cell growth inhibition (H929 cells) was “showed little effect on cell growth inhibition”.
In the case of `CC(C)N(Cc1ccc(C(=O)Nc2ccc(OCCCNC(=O)CNc3cccc4c3C(=O)N(C3CCC(=O)NC3=O)C4=O)cn2)cc1)C(=O)c1ccc2c(c1)OCC(=O)N2` (stereo not shown) [Compound 18, N-(4-((5-(3-(2-((2-(2,6-Dioxopiperidin-3-yl)-1,3-dioxoisoindolin-4-yl)amino)acetamido)propoxy)pyridin-2-yl)carbamoyl)benzyl)-N-isopropyl-3-oxo-3,4-dihydro-2H-benzo[b][1,4]oxazine-7-carboxamide], the GSPT1 degradation (GSPT1 [6]) is reported as “did not degrade GSPT1”, the IKZF1 protein level (IKZF1 [7]) is reported as “clearly reduced the IKZF1 protein level” and the NSD2 degradation (NSD2 [1]; 2.5 μM, 72 h) is reported as “did not induce obvious NSD2 degradation”. The IKZF1 protein level (IKZF1 [9]) was “clearly reduced the IKZF1 protein level”, the NSD2 degradation (NSD2 [2]; 2.5 μM, 72 h) was “did not induce obvious NSD2 degradation” and the Kd (NSD2-PWWP1 domain) was “did not show any appreciable binding”. The Cell growth inhibition (KMS11 cells) was “displayed some growth inhibition”, the GSPT1 degradation (GSPT1 [11]) was “did not degrade GSPT1” and the Cell growth inhibition (H929 cells) was “displayed some growth inhibition”.
With `O=C1COc2cc(C(=O)N(Cc3ccc(C(=O)Nc4ccncn4)cc3)C3CC3)ccc2N1` [UNC6934, reference compound] the IKZF1 protein level (IKZF1 [7]) was “did not display any degradation effect”, the IKZF3 protein level (IKZF3 [8]) was “did not display any degradation effect” and the IKZF1 protein level (IKZF1 [9]) was “did not display any degradation effect”. The IKZF3 protein level (IKZF3 [10]) was “did not display any degradation effect”.
